Assay [1] relates to A549. Kind of assay: Antiproliferative activity against human A549 cells assessed as cell growth inhibition measured after 24 hrs by MTT assay. Type of assay: functional, cell-based. The settings on record: A549, 24 h. For orientation: Tetrazolium dyes change colour on reduction, which living cells bring about.
In assay [2] the target is Mitogen-activated protein kinase 3 (Homo sapiens) (UniProt P27361). The assay can be described thus: Inhibition of ERK1 (unknown origin) at 25 nM relative to control.
Mitogen-activated protein kinase 3 (Homo sapiens), sequence (P27361 whole entry): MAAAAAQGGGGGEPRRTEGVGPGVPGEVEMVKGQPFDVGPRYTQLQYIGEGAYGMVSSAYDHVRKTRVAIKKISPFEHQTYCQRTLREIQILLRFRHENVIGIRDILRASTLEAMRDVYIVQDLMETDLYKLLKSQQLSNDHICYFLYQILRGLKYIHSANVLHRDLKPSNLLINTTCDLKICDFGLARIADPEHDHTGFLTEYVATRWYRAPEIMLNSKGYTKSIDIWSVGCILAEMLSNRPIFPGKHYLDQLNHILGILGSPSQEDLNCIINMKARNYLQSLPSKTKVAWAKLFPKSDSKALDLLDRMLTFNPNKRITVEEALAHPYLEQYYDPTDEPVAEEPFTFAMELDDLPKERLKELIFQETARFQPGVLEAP
The target of assay [3] is Vascular endothelial growth factor receptor 2 (Homo sapiens, UniProt P35968). The assay can be described thus: Inhibition of VEGFR2 (unknown origin) at 25 nM using Poly(Glu, Tyr) as substrate by Kinase-Glo plus luminescent kinase assay. (In general: Kinase-Glo reads ATP consumption through a luciferase reaction.)
Vascular endothelial growth factor receptor 2, sequence (P35968 whole entry): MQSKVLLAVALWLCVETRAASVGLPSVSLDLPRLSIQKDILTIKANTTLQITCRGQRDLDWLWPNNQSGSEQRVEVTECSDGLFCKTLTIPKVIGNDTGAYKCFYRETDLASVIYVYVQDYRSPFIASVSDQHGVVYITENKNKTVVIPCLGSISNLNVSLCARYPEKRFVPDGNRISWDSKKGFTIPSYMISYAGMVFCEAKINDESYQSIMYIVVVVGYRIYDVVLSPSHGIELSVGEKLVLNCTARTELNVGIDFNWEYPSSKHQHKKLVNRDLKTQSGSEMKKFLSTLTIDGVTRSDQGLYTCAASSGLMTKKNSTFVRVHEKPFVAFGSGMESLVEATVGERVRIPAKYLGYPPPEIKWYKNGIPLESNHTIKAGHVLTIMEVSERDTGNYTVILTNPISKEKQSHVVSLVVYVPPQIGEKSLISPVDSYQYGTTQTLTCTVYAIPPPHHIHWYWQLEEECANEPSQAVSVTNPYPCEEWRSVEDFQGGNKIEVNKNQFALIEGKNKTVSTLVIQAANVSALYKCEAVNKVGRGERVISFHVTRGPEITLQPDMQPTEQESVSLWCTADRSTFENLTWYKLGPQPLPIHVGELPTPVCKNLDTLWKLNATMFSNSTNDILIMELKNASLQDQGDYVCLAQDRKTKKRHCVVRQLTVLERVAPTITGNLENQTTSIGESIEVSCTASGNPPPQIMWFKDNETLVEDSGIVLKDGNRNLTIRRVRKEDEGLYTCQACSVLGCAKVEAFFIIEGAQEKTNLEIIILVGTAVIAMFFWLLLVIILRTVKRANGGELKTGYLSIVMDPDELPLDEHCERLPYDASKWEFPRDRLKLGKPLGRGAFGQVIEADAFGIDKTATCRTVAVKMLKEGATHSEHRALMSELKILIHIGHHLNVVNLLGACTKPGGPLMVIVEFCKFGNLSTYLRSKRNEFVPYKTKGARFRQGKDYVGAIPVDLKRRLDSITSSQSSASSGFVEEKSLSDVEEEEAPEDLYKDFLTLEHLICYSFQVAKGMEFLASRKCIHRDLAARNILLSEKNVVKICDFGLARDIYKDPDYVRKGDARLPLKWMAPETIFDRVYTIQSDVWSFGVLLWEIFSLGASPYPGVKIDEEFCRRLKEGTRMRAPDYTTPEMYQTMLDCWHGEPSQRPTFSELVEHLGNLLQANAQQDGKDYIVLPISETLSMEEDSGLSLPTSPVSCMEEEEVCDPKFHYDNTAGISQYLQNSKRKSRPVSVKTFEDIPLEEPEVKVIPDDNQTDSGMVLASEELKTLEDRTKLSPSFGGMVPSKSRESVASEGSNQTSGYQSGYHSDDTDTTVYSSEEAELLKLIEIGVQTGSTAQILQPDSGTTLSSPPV
The test system of assay [4] is PC-3. Kind of assay: Antiproliferative activity against human PC-3 cells assessed as cell growth inhibition measured after 24 hrs by MTT assay. Format: functional, cell-based. As to conditions: PC-3, 24 h.
Assay [5] concerns A549. Kind of assay: Antiproliferative activity against human A549 cells assessed as cell growth inhibition at 5 uM in presence of etoposide by CellTiter-Glo luminescent assay relative to control. Format: functional. Set-up: scale not given: the % may be the effect or the level left. (ATP-based viability assays read luminescence as a measure of living cells.)
The test system of assay [6] is A549. Kind of assay: Antiproliferative activity against human A549 cells assessed as cell growth inhibition at 5 uM in presence of doxorubicin by CellTiter-Glo luminescent assay relative to control. Format: functional. Further details: scale not given: the % may be the effect or the level left.

The source of these data is ChEMBL document CHEMBL5230115, “Bioactive pyrrole-based compounds with target selectivity” (Eur J Med Chem, 2020).

Turning to `Cn1ccc2c(Nc3ccc(F)c(Cl)c3)nc(NC(=O)Nc3cccc(C(F)(F)F)c3)nc21`, the IC50 (usually the concentration needed to halve the response being measured) in assay [1] was found to be 350 nM.

`Cc1cccc(NC(=O)Nc2ccc(Oc3ncnc4[nH]c(C)c(C)c34)cc2)c1`: in assay [2], the inhibition (commonly the percentage by which the read-out fell short of the control) turned out to be 50%. For the same compound, the IC50 in assay [3] came to 13.6 nM.

In assay [2], `Cc1cccc(NC(=O)Nc2ccc(Nc3ncnc4[nH]c(C)c(C)c34)cc2)c1` gave an inhibition of 50%. In addition, the IC50 in assay [3] turned out to be 11.9 nM.

On to `Cn1ccc2c(Nc3ccc(Cl)cc3)nc(NC(=O)Nc3ccc(F)cc3)nc21`, for which the IC50 in assay [1] was 1560 nM.

On to `Cn1ccc2c(Nc3cccc(Br)c3)nc(NC(=O)Nc3ccc(F)c(C(F)(F)F)c3)nc21`, for which, in assay [1], the 50% inhibitory concentration (IC50) came out at 1480 nM.

As for `Cn1ccc2c(Nc3cccc(Br)c3)nc(NC(=O)Nc3ccc(Cl)c(C(F)(F)F)c3)nc21`, the IC50 in assay [4] amounted to 1040 nM.

Turning to `COc1ccc(-c2nc3ccc(C(=O)Nc4cn(C)c(C(=O)Nc5cc(C(=O)NCCCN(C)C)n(CCCN)c5)n4)cc3[nH]2)cc1`, the Activity in assay [5] came out at 50%; in assay [6] it was 22%.
